The source of these data is patent US20030165446A1, “Divalent manganese salts for reducing odour resulting from bacterial decomposition of human perspiration” (priority 2003, published 2003).

The test system of data set [1] is Staphylococcus epidermidis. It is filed as cell-based. Conditions: dilutions in agar medium. Here is the method:
(§1) The microbiostatic activity of MnCl2 was determined in comparison with triclosan (deodorant active principle of the prior art) by the method of dilutions in agar medium.
(§2) One hundred μl of the ethanolic solution were added to 0.9 ml of agar culture heated beyond the melting point to 45° C. (medium chosen as a function of the nutrient requirements of the strain studied). After stirring with a Vortex device, successive dilutions in geometric progression in a ratio of 2 of the solution obtained were carried out using agar culture medium heated beyond the melting point to 45° C. One ml of each dilution was introduced into the wells of a microplate (Flacon [sic], 24 wells). Four μl of microbial suspension were deposited at the surface of the agar medium.
(§3) Two control wells were also prepared: 100 μl H2O+0.9 ml of culture medium (growth control), 100 μl ethanol+0.9 ml of culture medium.
(§4) After incubating under conditions (temperature, atmosphere and duration) dependent on the strain studied, the Minimum Inhibitory Concentration (MIC) is given by the lowest concentration of product which inhibits microbial growth.
(§5) Results: expressed in % w/v

The next data set concerns Corynebacterium xerosis. It is filed as cell-based. The note with it: dilutions in agar medium. Here is the method:
as §1, §2, §3, §4, §5

Data set [2] has as its system natural sweat (human axillary sweat). The note with it: 1 mg of active material per ml of sweat, i.e. 0.1%, incubated 18 h then 24 h at 37° C., with respect to control sweat without deodorant agent; for Mean % of reduction in the odor annoyance (mean over 18 h and 24 h): hedonic grade. How it is done: A test of inhibition of the evolution of odors was carried out on natural sweat.
The principle of this test consists in adding the deodorant agent to fresh sweat and then in carrying out an olfactory evaluation by a jury of experts after incubating for 18 hours and then 24 hours at 37° C.
Thus, the axillary sweat was taken from several human models in a sauna and was combined to produce a sample of sweat. In order to obtain the characteristic nauseating odor of sweat, this sample of sweat was incubated […]. […] The active substance was then introduced into each of the flasks to be tested.
Per 1 mg of active material per ml of sweat, i.e. 0.1%: […]

The conditions of data set [3]: background statement; cited from earlier work.

Turning to `Oc1cc(Cl)ccc1Oc1ccc(Cl)cc1Cl` [Triclosan, 2,4,4′-trichloro-2′-hydroxydiphenyl ether], the “Minimum Inhibitory Concentration (MIC)” value in data set [1] is recorded as 3 × 10^−8 % w/v; with Corynebacterium xerosis it was 4 × 10^−6 % w/v. For the same compound, the “Mean % of reduction in the strength of the odor (mean over 18 h and 24 h)” value in data set [2] was −39%. For the same compound, the “Mean % of reduction in the odor annoyance (mean over 18 h and 24 h)” value in data set [2] is on record as −27%. Moreover, the solubility in water entry in data set [3] is listed as “insoluble”.

Take manganese chloride [MnCl2]: the “Minimum Inhibitory Concentration (MIC)” value in data set [1] is 0.23 % w/v. The “Minimum Inhibitory Concentration (MIC)” value with Corynebacterium xerosis was found to be 0.23 % w/v. Also, in data set [2], the “Mean % of reduction in the strength of the odor (mean over 18 h and 24 h)” value is −43%; the “Mean % of reduction in the odor annoyance (mean over 18 h and 24 h)” value is listed as −31%.
